Test results taken from patent publication US12723039B2, “Small molecule inhibitors of SLC15A4 with anti-inflammatory activity” (THE SCRIPPS RESEARCH INSTITUTE, priority 2020, dated 2026).

What was measured:
[1] = tested on: CpG (TLR9); test: In vivo model of inflammation: CpG co-injection, serum cytokines; conditions: mice co-injected with compound and CpG (TLR9), single dose, serum after 6 hr
[2] = target: T1, human SLC15A4 dileucine mutant (L14A, L15A, L318A, V319A) (Homo sapiens, UniProt Q8N697, L14A/L15A/L318A/V319A); test: SLC15A4 transport NFκB luciferase reporter assay in A549 cells; assay type: cell-based; conditions: for block of MDP transport in a dose-dependent fashion: FIG. 9; for suppression of MDP or Tri-DAP induced NFκB luciferase: A549 cells with membrane-trafficked SLC15A4 mutant
T1 construct: expressed in transfected cells
From the text: Development of SLC15A4-Transport Luciferase Reporter Assay. […] The precise substrate scope of endolysosomal SLC15A4 is not established. However, several studies have implicated SLC15A4 to be a transporter of the bacterial-derived peptidoglycans, such as MDP and Tri-DAP, which are ligands of the immune sensors NOD1 and NOD2^27-29, 48. Recently, it has been shown that disruption of the dileucine motifs (DE)-XXXL-(L/I) or DXXLL of SLC15A3^49 and SLC15A4^50 can result in successful targeting to the plasma membrane. Considering that NODs signal through the NFκB pathway, we sought to develop an NFκB reporter assay as a strategy to measure SLC15A4 transport in cells.
Briefly, both wildtype (WT) human SLC15A4 and a dileucine mutant (L14A, LISA, L318A, V319A) were cloned in frame with the mCherry using a (GGGGS)3 linker in the pLPC lentiviral backbone. Lentiviral vectors were packaged in psPAX2 and pMD2.G packing plasmids and used to generate stable cell lines expressing either SLC15A4 WT or membrane-trafficked SLC15A4 mutant A549 cells (FIG. 5A). Stable reporter cells were subsequently generated from these SLC15A4 cell lines using the Promega Dual-Luciferase Reporter system (pGLA4.32 [luc2P/NFκB-RE/Hygro]) containing five copies of an NF-κB response element. We confirmed the production of luciferase upon exposure to MDP or Tri-DAP NOD ligands ([…]), which is suppressed when exposed to either triptolide (an NF[…]B inhibitor, FIG. 5C) ML130 (NOD1 inhibitor, not shown) or GSK717 (NOD2 inhibitor, not shown).

[3] = tested on: endogenous NOD signaling in mouse macrophages; test: Endogenous NOD signaling in mouse macrophages; assay type: cell-based; conditions: FIG. 11
[4] = tested on: endogenous NOD signaling in human macrophages; test: Endogenous NOD signaling in human macrophages; assay type: cell-based; conditions: FIG. 11
[5] = target: T2, SLC25A20 (Homo sapiens, UniProt O43772); conditions: previously published work (ref. 46); cited from earlier work
T2 construct: endogenous in cells
T2 sequence (O43772 1-301): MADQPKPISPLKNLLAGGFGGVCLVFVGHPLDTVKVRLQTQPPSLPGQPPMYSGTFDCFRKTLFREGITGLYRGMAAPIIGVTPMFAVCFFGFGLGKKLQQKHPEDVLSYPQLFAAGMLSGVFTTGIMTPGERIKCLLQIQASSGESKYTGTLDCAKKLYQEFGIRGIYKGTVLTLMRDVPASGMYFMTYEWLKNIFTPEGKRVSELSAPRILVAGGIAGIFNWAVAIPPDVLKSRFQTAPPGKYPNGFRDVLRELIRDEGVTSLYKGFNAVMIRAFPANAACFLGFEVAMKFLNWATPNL

T1 sequence (Q8N697 whole entry L14A/L15A/L318A/V319A): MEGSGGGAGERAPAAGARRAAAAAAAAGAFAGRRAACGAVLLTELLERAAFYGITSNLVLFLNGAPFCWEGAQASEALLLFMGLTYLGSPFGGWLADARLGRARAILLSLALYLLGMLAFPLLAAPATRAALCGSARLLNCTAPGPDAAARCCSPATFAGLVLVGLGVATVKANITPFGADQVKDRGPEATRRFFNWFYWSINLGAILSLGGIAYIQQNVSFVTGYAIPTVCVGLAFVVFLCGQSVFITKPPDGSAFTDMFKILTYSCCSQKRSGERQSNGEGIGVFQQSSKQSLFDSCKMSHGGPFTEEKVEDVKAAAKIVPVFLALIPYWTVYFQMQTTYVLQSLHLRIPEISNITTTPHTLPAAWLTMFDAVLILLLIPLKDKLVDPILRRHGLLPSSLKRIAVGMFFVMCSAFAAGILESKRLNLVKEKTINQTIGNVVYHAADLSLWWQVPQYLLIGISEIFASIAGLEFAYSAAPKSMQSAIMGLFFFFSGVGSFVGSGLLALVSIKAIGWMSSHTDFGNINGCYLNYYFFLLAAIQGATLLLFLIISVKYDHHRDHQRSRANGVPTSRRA

block of MDP transport in a dose-dependent fashion [2] | Compound | in vivo efficacy: serum cytokines after CpG [1] | other results
– | CCCC(=O)n1c(NCc2c[nH]c3ccc(Br)cc23)nc2ccccc21 [AJ2-3, 1-(2-(((5-bromo-1H-indol-3-yl)methyl)amino)-1H-benzo[d]imidazol-1-yl)butan-1-one] | active | –
active | Brc1ccc2[nH]cc(CNc3nc4ccccc4[nH]3)c2c1 [AJ2-3A, N-((5-bromo-1H-indol-3-yl)methyl)-1H-benzo[d]imidazol-2-amine] | – | –
inactive controls | CCCC(=O)N(Cc1ccc2[nH]ccc2c1)C1Cc2ccccc2NC1=O (stereo not drawn) [AJ2-18, N-((1H-indol-5-yl)methyl)-N-(2-oxo-1,2,3,4-tetrahydroquinolin-3-yl)butyramide] | – | –
inactive controls | CCCC(=O)N(Cc1ccc2[nH]ccc2c1)C1Cc2ccccc2C1 [AJ2-22, N-((1H-indol-5-yl)methyl)-N-(2,3-dihydro-1H-inden-2-yl)butyramide] | inactive control | –
active | CCn1c2ccccc2c2cc(CNc3nc4ccccc4n3C)ccc21 [AJ2-30, N-((9-ethyl-9H-carbazol-3-yl)methyl)-1-methyl-1H-benzo[d]imidazol-2-amine] | active | block of endogenous NOD signaling in mouse macrophages [3]: active; block of endogenous NOD signaling in human macrophages [4]: active
– | C#CCCC1(CCC(=O)Nc2ccc3oc(=O)ccc3c2)N=N1 [FFF 3] | – | engagement of SLC25A20 [5]: highly engages
– | Cc1ccc(S(=O)(=O)n2c(N)nc3ccccc32)cc1 [ML130, reference compound] | – | suppression of MDP or Tri-DAP induced NFκB luciferase [2]: suppressed
– | CC(C)[C@]12O[C@H]1[C@@H]1O[C@]13[C@]1(O[C@H]1C[C@H]1C4=C(CC[C@@]13C)C(=O)OC4)[C@@H]2O [triptolide, reference compound] | – | suppression of MDP or Tri-DAP induced NFκB luciferase [2]: suppressed
